Measured values: PubChem BioAssay (NCI)
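Tested at 5 concentrations; 48 h exposure; 96-well plates; endpoints linearly interpolated, else capped at highest concentration. The concentration for 50% growth inhibition is given as GI50. TGI is the concentration that stops growth completely.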

Legend:
Assay in all cases: NCI-60 cell line screen, 48 h
SN12C renal = system: SN12C renal
786-0 renal = system: 786-0 renal
HCT-116 colon = system: HCT-116 colon
U251 CNS = system: U251 CNS
SF-268 CNS = system: SF-268 CNS
EKVX NSCLC = system: EKVX NSCLC
HOP-92 NSCLC = system: HOP-92 NSCLC
COLO 205 colon = system: COLO 205 colon
K-562 leukemia = system: K-562 leukemia
A498 renal = system: A498 renal

| SMILES | GI50 (SN12C renal) [µM] | TGI (SN12C renal) [µM] | GI50 (786-0 renal) [µM] | TGI (786-0 renal) [µM] | GI50 (HCT-116 colon) [µM] | TGI (HCT-116 colon) [µM] | GI50 (U251 CNS) [µM] | TGI (U251 CNS) [µM] | GI50 (SF-268 CNS) [µM] | TGI (SF-268 CNS) [µM] | GI50 (EKVX NSCLC) [µM] | TGI (EKVX NSCLC) [µM] | GI50 (HOP-92 NSCLC) [µM] | TGI (HOP-92 NSCLC) [µM] | GI50 (COLO 205 colon) [µM] | TGI (COLO 205 colon) [µM] | GI50 (K-562 leukemia) [µM] | TGI (K-562 leukemia) [µM] | TGI (A498 renal) [µM] | GI50 (A498 renal) [µM] |
| --- | --- | --- | --- | --- | --- | --- | --- | --- | --- | --- | --- | --- | --- | --- | --- | --- | --- | --- | --- | --- |
| CCn1c(-c2cc3ccccc3cc2OC(=O)c2ccccc2)n[nH]c1=S | 35.9 | > 50 | > 50 | > 50 | 43.1 | > 50 | > 50 | > 50 | > 50 | > 50 | 10.7 | > 50 | > 50 | > 50 | > 50 | > 50 | 22.5 | > 50 |  |  |
| Cc1ccc(NC(=O)CCC(=O)C(C#N)c2ccc(Cl)cc2)cc1C (stereo unspecified) |  | > 100 |  | > 100 |  | > 100 |  | > 100 |  | > 100 |  | > 100 |  | > 100 |  |  |  | > 100 | > 100 |  |
| S=C1OC2C3C4CC5C3C(O1)C1C5C4C21 (stereo unspecified) |  | > 100 |  | > 100 |  | > 100 |  | > 100 |  | > 100 |  | > 100 |  | > 100 |  | > 100 |  |  | > 100 |  |
| CN1C=CN(Cc2ccc(-c3ccccn3)nc2)[CH-]1.CN1C=CN(Cc2ccc(-c3ccccn3)nc2)[CH-]1.[Au+3] | 2.98 | > 45 | 6.14 | > 100 | 2.4 | 10.9 | 4.35 | 20.8 | 5.91 | 26.2 |  |  | 3.2 | 10.2 | 0.421 | 17.8 | 0.54 | > 100 | > 68.8 | 8.53 |
| Cc1cc(C(=O)NCCN(C)C)c2nc3ccccc3nc2c1 |  | 43.7 |  | > 61.9 |  | 16.3 |  | 33.3 |  |  |  | 43.5 |  |  |  | > 37.1 |  | 9.8 | 16.4 |  |
| ClCc1ccc(Cn2cnc3ncnc(Cl)c32)cc1 | 3.61 | 14.9 | 1.68 | 3.05 |  |  | 1.09 | 2.29 | 1.64 | 3.43 | 2.25 | 4.45 | 1.17 | 2.52 | 1.9 | 3.78 | 3.03 | > 100 | 3.37 | 1.81 |
| C(=C1/CCCCC([n+]2ccccc2)=N1)/c1ccccc1 |  | > 100 |  | > 100 |  | > 100 |  | > 100 |  | > 100 |  | > 100 |  | > 100 |  | > 100 |  | > 100 |  |  |
| Cc1nc(Nc2ccc([N+](=O)[O-])cc2)sc1C(=O)/C=C/c1ccc(N(C)C)cc1 |  | > 100 |  | > 100 |  |  |  | > 100 |  | > 100 |  | > 100 |  | > 100 |  | > 100 |  | > 100 | > 100 |  |
| COCCOCCOCCOCCOc1ccc2c(c1)C(=O)c1nc3ncccc3c(=O)n1-2 | 1.38 | 2.91 | 2.17 | 9.46 | 1.56 | 4.46 | 1.29 | 2.56 | 1.54 | 5.17 | 1.87 | 5.28 | 8.23 | 29.5 | 1.88 | 3.35 |  |  | 3.16 | 1.77 |
| O=[N+]([O-])C(=C(c1ccccc1)c1ccccc1)[N+](=O)[O-] |  | 30.9 |  | 27.7 |  | 26.3 |  | 26.4 |  | 12.7 |  |  |  |  |  | 24.9 |  | > 100 | 28.6 |  |
| Cc1ccc(C)c2sc3cc(=O)ccc-3nc12 |  | > 100 |  | > 100 |  | > 100 |  | > 100 |  | > 100 |  | > 100 |  | 83.3 |  | > 100 |  | 79.6 |  |  |
| O=C(Nc1ccc(-c2nc3ccc(NC(=O)c4ccc(Cl)cc4)cc3[nH]2)cc1)c1ccc(Cl)cc1 | 12 | 24.3 | 0.308 | 2.26 | 2.71 | 10.8 | 0.412 | 3.21 | 5.78 | 18.5 |  |  | 2.68 | 11 | 2.47 | 6.54 | 0.487 | 4.57 | 16.8 | 3.56 |
| CC(C)(C)c1ccc(C(O)(c2ccc(C(C)(C)C)cc2)c2ccc(C(C)(C)C)cc2)cc1 |  | > 100 |  | > 100 |  | > 100 |  | > 100 |  | > 100 |  | > 100 |  |  |  | > 100 |  | > 100 | > 100 |  |
| C=C1C(=O)C23C(CC(OC(C)=O)C1[C@@H]2OC(C)=O)C1(C)C(OC(C)=O)CCC(C)(C)C1C[C@@H]3OC(C)=O (stereo partly specified) |  | 2.8 |  | 2.73 |  | 2.97 |  | 2.95 |  | 2.98 |  | 5.38 |  | 1.35 |  |  |  | 3.6 | 3.4 |  |
| CC12CC(=O)NN=C1c1ccccc1C2 (stereo unspecified) |  | > 100 |  | > 100 |  | > 100 |  | > 100 |  | > 100 |  | > 100 |  |  |  | > 100 |  | > 100 | > 100 |  |
| C[P+](C)(CC(F)(F)F)c1ccccc1 |  | > 100 |  | > 100 |  | > 100 |  | > 100 |  |  |  | > 100 |  |  |  | > 100 |  | > 100 | > 100 |  |
| COc1ccc(/C=C/CO)cc1OC |  | > 100 |  | > 100 |  |  |  | > 100 |  | > 100 |  | > 100 |  | > 100 |  | > 100 |  | > 100 |  |  |
| Cc1cc(Br)cc(C)c1NC(=O)C(=O)C(C(=O)c1ccc(Cl)c(Cl)c1)C1OC(=O)c2ccccc21 (stereo unspecified) |  | > 100 |  | > 100 |  | > 100 |  | > 100 |  | > 100 |  | > 100 |  |  |  | > 100 |  | > 100 | > 100 |  |
| Fc1ccc(-c2c(-c3ccncc3)n(CCN3CCOCC3)c3cccnc23)cc1 | > 25 | > 25 | > 25 | > 25 | > 25 | > 25 | > 25 | > 25 | > 25 | > 25 |  |  | 2.2 | > 25 | > 25 | > 25 | > 25 | > 25 | > 25 | > 25 |
